No end group written: not given here.
How the values were obtained:
rat pituitary cells = assay: stimulation of growth hormone production in rat pituitary cells in tissue culture (RIA for rat growth hormone); format: cell-based
Method: Biological activity of the synthetic GRF(1-44)NH2 was identical to the natural GRF(1-44)NH2 which was isolated from a human pancreatic tumor of an individual suffering from acrommegaly (Salk Institute standard hGRF-NH2 (NL-A-10)). The assay for biological activity, which is based on the ability to stimulate production of growth hormone in rat pituitary cells in tissue culture, was performed in the following manner.
Pituitaries from 30-40 male Sprague-Dawley rats (175 g) were removed aseptically after decapitation. The anterior lobes were collected, washed 3 times in sterile Hepes buffer (0.025M) (pH 7.35) and dispersed at 37° C. in 20-30 ml Hepes buffer (pH 7.35) containing collagenase (4 mg per ml) and Dispase (Protease grade II, 2 mg per ml). After gentle 100-110-min. vortexing and trituration by Pasteur pipette, the dispersed cells were separated by centrifugation (150×g, 4 min) and re-suspended in Hepes buffer containing neuraminidase ([…]), and 200 µg/ml ethylenediaminetetraacetic acid (EDTA) disodium salt pH 7.35, for 10 min. The cells were washed twice with plating medium and plated on multiwell-plates (1.5×10^5 cells per ml) using the following defined medium: F-12/DMEM/BGJ (6:3:1) (Gibco: 430-1700/430-1600/320-2591) with 2 g BSA/1., 2.38 g Hepes/1.50 mg PSN antibiotic mixture (Gibco Laboratories), 10 mg/l transferrin (Sigma T2252) with 1.83 gm NazHCO3/l (Baker 3506). The medium in each well was supplemented either with a sample of the novel GRF peptide or natural GRF(1-44)-NH2 at concentrations ranging from 0.8 to 200 fmol. per ml. of medium. Control wells contained no supplement. Plating was done with this medium added with 2% fetal calf serum to ensure rapid fixation of the cells. On the fourth day the cells were washed twice with the defined medium without fetal calf serum. Finally 900 μl of defined medium was added to each well plus 100 μl of the same medium containing each individual treatment, in triplicate. After 4 hours of incubation the medium was collected and diluted as required to conduct radioimmunoassay (RIAs) for rat growth hormone. […]

[1] = test system: release of growth hormone; details: Rivier and Vale et al., Nature 300, 276-278 (1982); cited from earlier work

YADAIFTNSYRKVLAQLSARKLLQDIMSR-NH2 [(Ala^15)GRF(1-29)NH2, [Ala^15]-hGRF(1-29)-NH2]
potency compared to GRF(1-44)NH2 (rat pituitary cells; relative to GRF(1-44)NH2, on a weight for weight basis, 4 hours of incubation): 4.1 times | potency compared to GRF(1-29)NH2 (rat pituitary cells; relative to unsubstituted shortened GRF(1-29)NH2, 4 hours of incubation): 5.1 times

GRF(1-29)-NH2
intrinsic activity and potency in vitro [1]: full intrinsic activity and potency

CC[C@H](C)[C@H](NC(=O)[C@H](C)NC(=O)[C@H](CC(=O)O)NC(=O)[C@H](C)NC(=O)[C@@H](N)Cc1ccc(O)cc1)C(=O)N[C@@H](Cc1ccccc1)C(=O)N[C@H](C(=O)N[C@@H](CC(N)=O)C(=O)N[C@@H](CO)C(=O)N[C@@H](Cc1ccc(O)cc1)C(=O)N[C@@H](CCCNC(=N)N)C(=O)N[C@@H](CCCCN)C(=O)N[C@H](C(=O)N[C@@H](CC(C)C)C(=O)NCC(=O)N[C@@H](CCC(N)=O)C(=O)N[C@@H](CC(C)C)C(=O)N[C@@H](CO)C(=O)N[C@@H](C)C(=O)N[C@@H](CCCNC(=N)N)C(=O)N[C@@H](CCCCN)C(=O)N[C@@H](CC(C)C)C(=O)N[C@@H](CC(C)C)C(=O)N[C@@H](CCC(N)=O)C(=O)N[C@@H](CC(=O)O)C(=O)N[C@H](C(=O)N[C@@H](CCSC)C(=O)N[C@@H](CO)C(=O)N[C@@H](CCCNC(=N)N)C(=O)N[C@@H](CCC(N)=O)C(=O)N[C@@H](CCC(N)=O)C(=O)NCC(=O)N[C@@H](CCC(=O)O)C(=O)N[C@@H](CO)C(=O)N[C@@H](CC(N)=O)C(=O)N[C@@H](CCC(N)=O)C(=O)N[C@@H](CCC(=O)O)C(=O)N[C@@H](CCCNC(=N)N)C(=O)NCC(=O)N[C@@H](C)C(=O)N[C@@H](CCCNC(=N)N)C(=O)N[C@@H](C)C(=O)N[C@@H](CCCNC(=N)N)C(=O)N[C@@H](CC(C)C)C(N)=O)[C@@H](C)CC)C(C)C)[C@@H](C)O [synthetic GRF(1-44)NH2, GRF(1-44)-NH2]
biological activity compared with natural GRF(1-44)NH2 (rat pituitary cells; versus natural GRF(1-44)NH2 isolated from a human pancreatic tumor (Salk Institute standard NL-A-10)): identical

From US4649131A, “Growth hormone releasing factor analogs” (Hoffmann-La Roche Inc., priority 1985, dated 1987)
